These are literature values, as cited in PMC3483082 (Chembiochem : a European journal of chemical biology, 2012).

Each structure is given as a SMILES string. pIC50: −log10 of the molar value.

As usually defined, the pIC50 is the IC50 on a negative log10 scale, so that one unit is a factor of ten.

The test system of data set [1] is CDK1. The conditions noted are these: read-out: IC50 CDK1.
The test system of data set [2] is CDK2. The conditions noted are these: read-out: IC50 (CDK2 inhibitor).

As for `CCN(CC)CCNC(=O)c1c(C)[nH]c(/C=C2\C(=O)Nc3ccc(F)cc32)c1C` [Hit 1, sunitinib], the pIC50 in data set [1] is 5.59.

On to `COc1ccc2c(c1)/C(=C/c1cnc[nH]1)C(=O)N2` [SU9516], for which the pIC50 in data set [2] is […].
